Assay results reported in patent publication US20200339548A1, “PYRIMIDINE DERIVATIVES AND THEIR USE FOR THE TREATMENT OF CANCER” (Adorx Therapeutics Limited, priority 2017, published 2020).

Assays:
Adenosine A3 receptor = target: T1, Adenosine A3 receptor (Homo sapiens, UniProt P0DMS8); assay: Adenosine receptor TR-FRET binding assay, A3; conditions: Table 9, further testing; displacement of 100 nM CA200645, CHO cell membranes; read-out: A3 Ki
T1 construct: expressed in transfected cells; host or cells: CHO cell membranes
T1 sequence (P0DMS8 1-318): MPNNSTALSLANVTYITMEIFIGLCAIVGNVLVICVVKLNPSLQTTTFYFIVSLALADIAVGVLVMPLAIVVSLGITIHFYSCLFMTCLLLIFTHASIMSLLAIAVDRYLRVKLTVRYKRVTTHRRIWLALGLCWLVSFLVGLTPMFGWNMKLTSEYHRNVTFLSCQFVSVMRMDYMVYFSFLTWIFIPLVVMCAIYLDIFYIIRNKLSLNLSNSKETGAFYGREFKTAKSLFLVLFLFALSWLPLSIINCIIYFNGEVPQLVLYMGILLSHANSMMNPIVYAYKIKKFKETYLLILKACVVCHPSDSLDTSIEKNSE
Experimental: (§1) All FRET binding experiments were conducted at room temperature in white 384-well plates, in assay binding buffer containing 1× LabMed (Cisbio, France), 100 μg/mL saponin, 1% DMSO and 0.02% pluronic acid. Binding of the fluorescently labelled Adenosine receptor antagonist XAC (CA200645, FRET acceptor) to terbium-labelled A1, A2a, A2b and A3 adenosine receptors (FRET donors) was detected by time-resolved FRET due to the close proximity of the donor and acceptor in a binding event. To investigate the ability of unlabelled test compounds to bind to Adenosine A1, A2a, A2b and A3 receptors, dose response curves were constructed that determined the ability of a range of concentrations to inhibit the binding of 30 nM CA200645 to the A2b receptor and 100 nM CA200645 to the A1, A2a, and A3 receptor.
(§2) Serial dilution (1:3 dilutions) of test compounds in neat DMSO and transfer of a 400 nL sample of test compound into the assay plate was carried out using the Mosquito (TTP Labtech, UK). The compound samples were incubated for 2 hours at room temperature with a fixed concentration of CA200645 defined for each receptor (see above) and CHO cell membranes containing the human Adenosine A1 (0.5 μg/well), A2a (0.3 μg/well), A2b (1 μg/well) or A3 (1 μg/well) receptor in 40 μL of assay buffer. Total and non-specific binding of CA200645 was determined in the absence and presence of 10 μM XAC, respectively.
(§3) Following 2 hours incubation, the level of CA200645 binding was detected on a Pherastar FSX (BMG Labtech, Germany) using standard TR-FRET settings. The terbium donor was excited with three laser flashes at a wavelength of 337 nm, and donor and acceptor emission was detected at 620 nm and 665 nm wavelengths, respectively. FRET ratios were obtained by multiplying the acceptor/donor ratio value by 10,000. Specific binding was determined by subtracting the non-specific binding FRET ratio from the total binding FRET ratio. Compound IC50 curves were analysed using GraphPad Prism 7.0 (GraphPad, USA) and Ki affinity values were determined from the obtained […] values using the method of Cheng and Prusoff.

Adenosine A1 receptor = target: T2, Adenosine A1 receptor (Homo sapiens, UniProt P30542); assay: Adenosine receptor TR-FRET binding assay, A1; conditions: Table 9, further testing; displacement of 100 nM CA200645, CHO cell membranes
T2 construct: expressed in transfected cells; host or cells: CHO cell membranes
T2 sequence (P30542 1-326): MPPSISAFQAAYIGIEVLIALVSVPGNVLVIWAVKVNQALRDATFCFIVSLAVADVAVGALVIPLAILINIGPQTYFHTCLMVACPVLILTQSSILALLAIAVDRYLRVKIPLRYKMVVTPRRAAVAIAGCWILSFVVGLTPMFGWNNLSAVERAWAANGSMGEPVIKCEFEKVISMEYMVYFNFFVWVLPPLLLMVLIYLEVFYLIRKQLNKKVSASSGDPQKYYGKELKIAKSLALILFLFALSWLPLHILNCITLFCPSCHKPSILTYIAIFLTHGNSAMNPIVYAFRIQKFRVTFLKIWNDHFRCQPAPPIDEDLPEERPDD
Experimental: as §1, §2, §3

Adenosine A2a receptor = target: T3, Adenosine A2a receptor (Homo sapiens, UniProt P29274); assay: Adenosine receptor TR-FRET binding assay, A2a; conditions: displacement of 100 nM CA200645, CHO cell membranes
T3 construct: expressed in transfected cells; host or cells: CHO cell membranes
Experimental: as §1, §2, §3

Adenosine A2b receptor = target: T4, Adenosine A2b receptor (Homo sapiens, UniProt P29275); assay: Adenosine receptor TR-FRET binding assay, A2b; conditions: Table 9, further testing; displacement of 30 nM CA200645, CHO cell membranes
T4 construct: expressed in transfected cells; host or cells: CHO cell membranes
T4 sequence (P29275 1-332): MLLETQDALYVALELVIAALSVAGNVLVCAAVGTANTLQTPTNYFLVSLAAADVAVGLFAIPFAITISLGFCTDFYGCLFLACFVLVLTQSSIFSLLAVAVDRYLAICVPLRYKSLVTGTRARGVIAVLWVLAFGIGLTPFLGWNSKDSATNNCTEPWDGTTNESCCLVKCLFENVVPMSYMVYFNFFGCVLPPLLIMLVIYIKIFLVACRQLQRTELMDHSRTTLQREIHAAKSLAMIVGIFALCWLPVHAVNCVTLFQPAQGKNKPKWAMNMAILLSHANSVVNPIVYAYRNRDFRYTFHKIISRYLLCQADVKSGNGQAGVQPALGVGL
Experimental: as §1, §2, §3

T3 sequence (P29274 whole entry): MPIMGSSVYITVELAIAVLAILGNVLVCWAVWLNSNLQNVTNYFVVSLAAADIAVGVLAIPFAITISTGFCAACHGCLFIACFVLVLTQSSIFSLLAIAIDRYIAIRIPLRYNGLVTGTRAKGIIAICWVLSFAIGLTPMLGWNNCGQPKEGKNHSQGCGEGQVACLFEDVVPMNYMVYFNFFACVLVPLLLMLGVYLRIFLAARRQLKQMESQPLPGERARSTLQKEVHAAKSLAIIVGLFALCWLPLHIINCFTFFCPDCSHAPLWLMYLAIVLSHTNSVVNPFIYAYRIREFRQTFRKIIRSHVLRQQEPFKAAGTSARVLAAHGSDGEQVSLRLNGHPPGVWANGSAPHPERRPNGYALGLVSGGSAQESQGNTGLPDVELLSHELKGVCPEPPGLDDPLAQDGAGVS

Ki (Adenosine A3 receptor) | Ki (Adenosine A1 receptor) | Ki (Adenosine A2a receptor; Table 8, Cheng and Prusoff) | Ki (Adenosine A2a receptor; Table 9, further testing) | Ki (Adenosine A2b receptor) | SMILES
202 nM | 740 nM | 744 nM | 744 nM | – | Cc1cccnc1CNC(=O)c1cnc(-c2ccc(F)cc2)nc1N [Example 14, 4-Amino-2-(4-fluorophenyl)-N-[(3-methyl-2-pyridyl)methyl]pyrimidine-5-carboxamide]
675 nM | 871 nM | 105 nM | 105 nM | – | Cc1cccnc1CNC(=O)c1c(N)nc(-c2ccco2)nc1-n1cccn1 [Example 19, 4-Amino-2-(2-furyl)-N-[(3-methyl-2-pyridyl)methyl]-6-pyrazol-1-yl-pyrimidine-5-carboxamide]
– | – | 505 nM | 505 nM | 3260 nM | Nc1nc(-c2cccc(F)c2)ncc1C(=O)NCCc1ccc(O)cc1 [Example 5.7, 4-Amino-2-(3-fluorophenyl)-N-[2-(4-hydroxyphenyl)ethyl]pyrimidine-5-carboxamide]
– | – | – | 20 nM | 2360 nM | COc1cccc(CNC(=O)c2cnc(-c3ccco3)nc2N)c1OC [Example 5.38, 4-Amino-N-[(2,3-dimethoxyphenyl)methyl]-2-(2-furyl)pyrimidine-5-carboxamide]
– | – | 76 nM | 76 nM | 195 nM | Nc1nc(-c2cccc(F)c2)ncc1C(=O)NCc1ccccn1 [Example 5.9, 4-Amino-2-(3-fluorophenyl)-N-(2-pyridylmethyl)pyrimidine-5-carboxamide]
– | – | – | 105 nM | 2120 nM | Nc1nc(-c2ccco2)ncc1C(=O)NCc1ncccn1 [Example 5.58, 4-Amino-2-(2-furyl)-N-(pyrimidin-2-ylmethyl)pyrimidine-5-carboxamide]
– | 2660 nM | – | 14 nM | 970 nM | Nc1nc(-c2ccco2)ncc1C(=O)NCc1cc2ccccc2cn1 [Example 5.36, 4-Amino-2-(2-furyl)-N-(3-isoquinolylmethyl) pyrimidine-5-carboxamide]
– | – | 90 nM | 90 nM | 172 nM | Nc1nc(-c2cccc(F)c2)ncc1C(=O)NCc1ccccc1F [Example 5.1, 4-Amino-2-(3-fluorophenyl)-N-[(2-fluorophenyl)methyl]pyrimidine-5-carboxamide]
– | – | 21 nM | 21 nM | 679 nM | CCOc1cccnc1CNC(=O)c1cnc(-c2cccc(F)c2)nc1N [Example 5.8, 4-Amino-N-[(3-ethoxy-2-pyridyl)methyl]-2-(3-fluorophenyl)pyrimidine-5-carboxamide]
4610 nM | – | – | 236 nM | – | Nc1nc(-c2ccco2)ncc1C(=O)NCc1nccc(C(F)(F)F)n1 [Example 5.59, 4-Amino-2-(2-furyl)-N-[[4-(trifluoromethyl)pyrimidin-2-yl]methyl]pyrimidine-5-carboxamide]
– | 1530 nM | – | 1.2 nM | 4220 nM | COc1cccc(OC)c1CNC(=O)c1cnc(-c2ccco2)nc1N [Example 5.31, 4-Amino-N-[(2,6-dimethoxyphenyl)methyl]-2-(2-furyl)pyrimidine-5-carboxamide]
– | – | 150 nM | 150 nM | 10000 nM | Cc1ccccc1CNC(=O)c1cnc(-c2cccc(F)c2)nc1N [Example 5.10, 4-Amino-2-(3-fluorophenyl)-N-(o-tolylmethyl)pyrimidine-5-carboxamide]
– | – | 50 nM | 50 nM | 138 nM | Nc1nc(-c2cccc(F)c2)ncc1C(=O)NCc1c(F)cccc1F [Example 5.4, 4-Amino-N-[(2,6-difluorophenyl)methyl]-2-(3-fluorophenyl)pyrimidine-5-carboxamide]
– | 4740 nM | – | 52 nM | 1090 nM | Nc1nc(-c2ccco2)ncc1C(=O)NCc1ccc2[nH]ccc2c1 [Example 5.41, 4-Amino-2-(2-furyl)-N-(1H-indol-5-ylmethyl) pyrimidine-5-carboxamide]
– | – | 96 nM | 96 nM | 378 nM | COc1cccc(CNC(=O)c2cnc(-c3cccc(F)c3)nc2N)c1OC [Example 10.10, 4-Amino-N-[(2,3-dimethoxyphenyl)methyl]-2-(3-fluorophenyl)pyrimidine-5-carboxamide]
